{
  "source": "patent US20220215898A1",
  "about": "“METHODS AND […] FOR GENERATING A VIRTUAL MODEL OF XENOBIOTIC EXPOSURE USING TRANS[…] OF LIQUID BIOPSY SAMPLES” (Certara USA, Inc., priority 2019, published 2022)",
  "origin": "cited, not measured here",
  "conditions": "compound files selected from the Simcyp library",
  "data": [
    {"molecule": "Cc1nnc2n1-c1ccc(Cl)cc1C(c1ccccc1)=NC2", "note": "[alprazolam]", "values": [
      {"measurement": "clearance category of CYP3A substrate", "value": "low clearance"}
    ]},
    {"molecule": "Cc1ncc2n1-c1ccc(Cl)cc1C(c1ccccc1F)=NC2", "note": "[midazolam]", "values": [
      {"measurement": "clearance category of CYP3A substrate", "value": "medium clearance"}
    ]}
  ]
}
